Read-outs that look alike come from different tables or passages of the source.
Columns and labels:
S. aureus (ATCC 29213) = S. aureus (ATCC 29213) MIC/EC50; format: cell-based; settings: Staphylococcus aureus, ATCC29213; S. aureus ATCC 29213; read-out: I) S. aureus (ATCC 29213) MIC/EC50, MIC
MetRS (S. aureus) = MetRS (S. aureus) (Staphylococcus aureus, UniProt Q5HII6); assay: biochemical; settings: ATP depletion, Kinase-Glo; read-out: H) MetRS (S. aureus) ATP depletion assay using Kinase-Glo with modified cpd dilution method, IC50
MetRS (S. aureus), sequence (Q5HII6 whole entry): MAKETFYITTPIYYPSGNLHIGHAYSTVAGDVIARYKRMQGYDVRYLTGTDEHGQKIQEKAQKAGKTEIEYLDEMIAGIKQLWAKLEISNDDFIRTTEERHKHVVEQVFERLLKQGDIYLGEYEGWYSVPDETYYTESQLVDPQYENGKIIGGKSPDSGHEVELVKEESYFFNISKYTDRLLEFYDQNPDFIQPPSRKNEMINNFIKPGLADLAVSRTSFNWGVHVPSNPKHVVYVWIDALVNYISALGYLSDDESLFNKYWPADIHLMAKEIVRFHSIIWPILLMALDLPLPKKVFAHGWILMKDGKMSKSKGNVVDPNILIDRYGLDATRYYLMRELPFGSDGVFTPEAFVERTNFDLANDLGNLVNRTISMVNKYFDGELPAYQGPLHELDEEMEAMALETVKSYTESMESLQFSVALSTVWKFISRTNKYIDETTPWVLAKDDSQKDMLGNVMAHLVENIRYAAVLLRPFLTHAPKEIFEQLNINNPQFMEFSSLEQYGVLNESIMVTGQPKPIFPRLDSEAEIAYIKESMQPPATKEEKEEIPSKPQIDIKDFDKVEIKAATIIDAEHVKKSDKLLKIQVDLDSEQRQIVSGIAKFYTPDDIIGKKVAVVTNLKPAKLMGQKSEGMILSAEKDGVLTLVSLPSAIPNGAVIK

MetRS (T. brucei) = MetRS (T. brucei) (Trypanosoma brucei brucei, UniProt Q38C91); assay: MetRS (T. brucei) ATP depletion assay using Kinase-Glo; format: biochemical
MetRS (T. brucei), sequence (Q38C91 entry or part of it): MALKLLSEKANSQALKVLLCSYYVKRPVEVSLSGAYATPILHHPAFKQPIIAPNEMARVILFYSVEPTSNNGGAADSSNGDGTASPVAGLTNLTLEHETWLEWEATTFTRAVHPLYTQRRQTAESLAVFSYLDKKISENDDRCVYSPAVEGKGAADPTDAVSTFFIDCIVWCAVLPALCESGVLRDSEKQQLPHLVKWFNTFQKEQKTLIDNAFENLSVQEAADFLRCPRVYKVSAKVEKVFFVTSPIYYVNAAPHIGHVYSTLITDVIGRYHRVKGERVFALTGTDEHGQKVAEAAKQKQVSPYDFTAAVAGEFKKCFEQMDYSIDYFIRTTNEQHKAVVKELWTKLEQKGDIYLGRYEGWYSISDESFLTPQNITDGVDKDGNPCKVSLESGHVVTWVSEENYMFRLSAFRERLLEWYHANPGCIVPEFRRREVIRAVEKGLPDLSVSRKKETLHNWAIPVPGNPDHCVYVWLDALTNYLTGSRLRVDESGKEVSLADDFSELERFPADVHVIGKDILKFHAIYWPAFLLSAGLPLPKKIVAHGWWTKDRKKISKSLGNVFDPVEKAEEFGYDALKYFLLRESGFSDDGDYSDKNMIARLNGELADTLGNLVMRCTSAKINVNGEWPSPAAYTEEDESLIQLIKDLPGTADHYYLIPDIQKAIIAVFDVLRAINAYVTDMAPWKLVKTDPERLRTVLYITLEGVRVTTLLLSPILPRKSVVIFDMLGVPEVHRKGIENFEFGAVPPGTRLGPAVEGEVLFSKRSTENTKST

T. brucei = assay: Growth inhibition assay of T. brucei cell cultures (Alamar Blue, 48 h); format: cell-based
[1] = tested on: S. aureus MRSA (ATCC 43300); assay: S. aureus MRSA (ATCC 43300) MIC/EC50; format: cell-based; settings: Staphylococcus aureus; S. aureus MRSA ATCC 43300; read-out: J) S. aureus MRSA (ATCC 43300) MIC/EC50, MIC
T. cruzi = T. cruzi growth inhibition EC50; format: cell-based; settings: Trypanosoma cruzi; read-out: C) T. cruzi EC50
L. amaz = L. amaz growth inhibition EC50; format: cell-based; settings: read-out: F) L. amaz EC50
[2] = Trypanosoma brucei; read-out: B) T. brucei EC50

| SMILES | MIC (S. aureus (ATCC 29213)) [µg/mL] | IC50 (MetRS (S. aureus)) [nM] | IC50 (MetRS (T. brucei)) [nM] | EC50 (T. brucei; [2]) [nM] | MIC [1] [µg/mL] | EC50 (T. cruzi) [nM] | EC50 (L. amaz) [nM] | EC50 (T. brucei; read-out: B) T. brucei EC50) [nM] |
| --- | --- | --- | --- | --- | --- | --- | --- | --- |
| O=C(NCc1nc2ccccc2[nH]1)OCCc1ccc(Cl)cc1Cl [Compound 1701, 2-(2,4-dichlorophenyl)ethyl N-(1H-1,3-benzodiazol-2-ylmethyl)carbamate] | > 10 | 67 | 5 | 1290 | > 10 | 8750 |  |  |
| O=C(NCc1nc2ccc(F)nc2[nH]1)OCCc1ccc(Cl)cc1Cl [Compound 1707, 2-(2,4-dichlorophenyl)ethyl N-({5-fluoro-3H-imidazo[4,5-b]pyridin-2-yl}methyl)carbamate] |  | 37 | 26 | 1610 |  | > 10000 | > 1000 |  |
| FC(F)(CNCc1cc(Cl)cc(Cl)c1)CNc1nc2cccnc2[nH]1 [Compound 1708, [(3,5-dichlorophenyl)methyl][2,2-difluoro-3-({3H-imidazo[4,5-b]pyridin-2-yl}amino)propyl]amme] |  | 88 | 11 | 1560 |  | > 5000 | > 1000 | 893 |
| N[C@@H](CC(=O)NCc1nc2ccccc2[nH]1)Cc1ccc(Cl)cc1Cl [Compound 1720, (R)—N-((1H-benzo[d]imidazol-2-yl)methyl)-3-amino-4-(2,4-dichlorophenyl)butanamide] | > 10 | 181 | 70 | 848 | > 10 | 3700 |  |  |
| O=C(Cc1cc(Cl)cc(Cl)c1)N1CCC[C@H](c2nc3cc(Cl)ccc3[nH]2)C1 [Compound 1758, (S)-1-(3-(5-chloro-1H-benzo[d]imidazol-2-yl)piperidin-1-yl)-2-(3,5-dichlorophenyl)ethanone] | > 10 | 1040 | 31 | 4650 | > 10 |  |  |  |
| O=C(Cc1cc(Cl)cc(Cl)c1)N1CCCC(c2nc3nc(Cl)ccc3[nH]2)C1 (centres unmarked) [Compound 1762, 1-(3-(5-chloro-1H-imidazo[4,5-b]pyridin-2-yl)piperidin-1-yl)-2-(3,5-dichlorophenyl)ethanone] | > 10 | 2880 | 28 | 1060 | > 10 |  |  |  |
| COc1ccc(Oc2cc(NCc3nc4ccc(F)nc4[nH]3)nc(Cl)n2)c(Cl)c1 [Compound 1796, 6-(2-chloro-4-methoxyphenoxy)-2-chloro-N-((5-fluoro-3H-imidazo[4,5-b]pyridin-2-yl)methyl)pyrimidin-4-amine] |  | 55 | 17 |  |  | 521 | > 1000 |  |
| COc1ccc(Oc2cc(NCc3nc4ccc(F)nc4[nH]3)nc(N3CCN(c4cnccn4)CC3)n2)c(Cl)c1 [Compound 1797, 6-(2-chloro-4-methoxyphenoxy)-N-((5-fluoro-3H-imidazo[4,5-b]pyridin-2-yl)methyl)-2-(4-(pyrazin-2-yl)piperazin-1-yl)pyrimidin-4-amine] |  | 2 | 23 |  |  | 432 | > 1000 |  |
| Clc1cc(Cl)cc(CN[C@H]2CCCN(c3nc4nc(Cl)ccc4[nH]3)C2)c1 [Compound 1856, (S)-1-(5-chloro-1H-imidazo[4,5-b]pyridin-2-yl)-N-(3,5-dichlorobenzyl) piperidin-3-amine] |  | 365 | 19 | 38.7 |  | 1470 | 4350 |  |
| COc1ccc(Oc2nc(NCc3nc4ccc(F)nc4[nH]3)nc(NCc3nc4ccc(F)nc4[nH]3)n2)c(Cl)c1 [Compound 1883, 6-(2-chloro-4-methoxyphenoxy)-2-N,4-N-bis({5-fluoro-3H-imidazo[4,5-b]pyridin-2-yl}methyl)-1,3,5-triazine-2,4-diamine] |  | 333 | 39 | 5620 |  | 17400 |  | 3670 |
| COc1ccc(Oc2nc(NCc3nc4ccc(F)nc4[nH]3)nc(Oc3ccc(OC)cc3Cl)n2)c(Cl)c1 [Compound 1884, 4,6-bis(2-chloro-4-methoxyphenoxy)-N-({5-fluoro-3H-imidazo[4,5-b]pyridin-2-yl}methyl)-1,3,5-triazin-2-amine] |  | 122 | 24 | 55.9 |  | 773 |  |  |
| Fc1ccc2[nH]c(N3CCCC(NCc4cc(Cl)cc(Cl)c4)C3)nc2n1 (centres unmarked) [Compound 1886, N-(3,5-dichlorobenzyl)-1-(5-fluoro-1H-imidazo[4,5-b]pyridin-2-yl) piperidin-3-amine] |  | 505 | 14 | 299 |  | 5160 |  |  |
| CN(CCNCc1cc(Cl)cc(Cl)c1)c1nc2ccc(Cl)nc2[nH]1 [Compound 1893, N-(2-(3,5-dichlorobenzylamino)ethyl)-5-chloro-N-methyl-1H-imidazo[4,5-b]pyridin-2-amine] |  | 296 | 8 | 14.8 |  | 340 | 3780 | 28.2 |
| Fc1ccc2[nH]c(N3CCC[C@H](NCc4cc(Cl)cc(Cl)c4)C3)nc2n1 [Compound 1900, (S)—N-(3,5-dichlorobenzyl)-1-(5-fluoro-1H-imidazo[4,5-b]pyridin-2-yl)piperidin-3-amine] |  | 303 | 27 | 128 |  | 2240 |  | > 200 |
| O=c1[nH]c(Cc2ccc(Cl)cc2Cl)cn1Cc1nc2ccccc2[nH]1 [Compound 1907, 3-((1H-benzo[d]imidazol-2-yl)methyl)-5-(2,4-dichlorobenzyl)-1H-imidazol-2(3H)-one] |  | 54 | 19 | 346 |  | 7670 | > 1000 |  |
| CCOc1c(Br)cc(Br)cc1CN[C@H]1CCCN(c2nc3nc(Cl)ccc3[nH]2)C1 [Compound 1910, (S)-1-(5-chloro-1H-imidazo[4,5-b]pyridin-2-yl)-N-(3,5-dibromo-2-ethoxybenzyl)piperidin-3-amine] |  | 22 | 19 | 39.5 |  | 934 |  |  |
| COc1c(Cl)cc(Cl)cc1CN[C@H]1CCCN(c2nc3nc(Cl)ccc3[nH]2)C1 [Compound 1911, (S)-1-(5-chloro-1H-imidazo[4,5-b]pyridin-2-yl)-N-(3,5-dichloro-2-methoxybenzyl)piperidin-3-amine] |  |  | 21 | 357 |  |  | 5150 |  |
| Clc1cc(Br)cc(CN[C@H]2CCCN(c3nc4nc(Cl)ccc4[nH]3)C2)c1 [Compound 1912, (S)—N-(3-bromo-5-chlorobenzyl)-1-(5-chloro-1H-imidazo[4,5-b]pyridin-2-yl)piperidin-3-amine] |  |  | 8 | 70.6 |  | 2250 | 7730 |  |
| CN(CCNCc1cc(Cl)cc(Cl)c1)c1nc2nc(F)ccc2[nH]1 [Compound 1913, N-(2-{[(3,5-dichlorophenyl)methyl]amino}ethyl)-5-fluoro-N-methyl-1H-imidazo[4,5-b]pyridin-2-amine] |  | 691 | 26 | 113 |  |  | > 1000 |  |
| Clc1cc(Cl)cc(CNCC2CCCN2c2nc3nc(Cl)ccc3[nH]2)c1 (centres unmarked) [Compound 1916, 1-(1-(5-chloro-1H-imidazo[4,5-b]pyridin-2-yl)pyrrolidin-2-yl)-N-(3,5-dichlorobenzyl)methanamine] |  |  | 58 | 480 |  |  | 9550 |  |
| CN(CCN[C@@H]1CCNc2c(Cl)cc(Cl)cc21)c1nc2nc(Cl)ccc2[nH]1 [Compound 1917, 5-chloro-N-(2-{[(4R)-6,8-dichloro-1,2,3,4-tetrahydroquinolin-4-yl]amino}ethyl)-N-methyl-3H-imidazo[4,5-b]pyridin-2-amine] |  | 137 | 21 |  |  | 15.7 | 663 |  |
| CN(CCN[C@@H]1CCNc2c(Cl)cc(Cl)cc21)c1nc2nc(F)ccc2[nH]1 [Compound 1919, (R)—N1-(6,8-dichloro-1,2,3,4-tetrahydroquinolin-4-yl)-N2-(5-fluoro-1H-imidazo[4,5-b]pyridin-2-yl)-N2-methylethane-1,2-diamine] |  | 328 | 15 | 6.31 |  | 88.8 | 1640 | 9.45 |
| CC(=O)N(CCN(C)c1nc2ccc(Cl)nc2[nH]1)Cc1cc(Cl)cc(Cl)c1 [Compound 1926, N-(3,5-dichlorobenzyl)-N-(2-(5-chloro-N-methyl-1H-imidazo[4,5-b]pyridin-2-ylamino)ethyl)acetamide] |  | 172 | 20 | 75.5 |  | 1330 |  |  |
| COc1ccc(Oc2ccnc(NCc3nc4ccccc4[nH]3)c2)c(Cl)c1 [Compound 1933, N-((1H-benzo[d]imidazol-2-yl)methyl)-4-(2-chloro-4-methoxyphenoxy)pyridin-2-amine] |  | 40 | 22 | 102 |  | 1710 |  |  |
| CCN(CCNCc1cc(Cl)cc(Cl)c1)c1nc2nc(Cl)ccc2[nH]1 [Compound 1949, 5-chloro-N-(2-{[(3,5-dichlorophenyl)methyl]amino}ethyl)-N-ethyl-3H-imidazo[4,5-b]pyridin-2-amine] |  | 606 | 18 | 79.9 |  | 1310 |  | 85.5 |

From patent publication US10913736B2 (UNIVERSITY OF WASHINGTON, priority 2014, dated 2021)
